Results on ten compounds are retold here after patent publication US10287255B2, “Compounds as histone deacetylase 6 inhibitors and pharmaceutical compositions comprising the same” (CHONG KUN DANG PHARMACEUTICAL CORP., priority 2014, dated 2019).

pIC50: −log10 of the molar value.

One assay deals with T1, human recombinant HDAC1 (Homo sapiens, UniProt Q13547).
T1 construct: purchased Enzo Life Science BML-SE456
Put plainly: HDAC1 enzyme activity inhibition assay (in vitro, fluorimetric). Format: biochemical. To be noted: human recombinant HDAC1, fluorimetric kit, 30° C. 60 minutes. A digest of the protocol: (§1)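 IC50 values derive from fluorescence (Ex 360, Em 460) after developer treatment (30 min) of reactions of recombinant human HDAC1 or HDAC6 with 10 μM Fluor de Lys-SIRT1 substrate (60 min, 30 °C). Compounds were serially diluted 5-fold; 0.3 μg enzyme was used for HDAC1, with HDAC6 tested identically.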

The target of another assay is T2, human recombinant HDAC6 (Homo sapiens, UniProt Q9UBN7).
T2 construct: purchased Calbiochem 382180
T2 sequence (Q9UBN7 1-1215): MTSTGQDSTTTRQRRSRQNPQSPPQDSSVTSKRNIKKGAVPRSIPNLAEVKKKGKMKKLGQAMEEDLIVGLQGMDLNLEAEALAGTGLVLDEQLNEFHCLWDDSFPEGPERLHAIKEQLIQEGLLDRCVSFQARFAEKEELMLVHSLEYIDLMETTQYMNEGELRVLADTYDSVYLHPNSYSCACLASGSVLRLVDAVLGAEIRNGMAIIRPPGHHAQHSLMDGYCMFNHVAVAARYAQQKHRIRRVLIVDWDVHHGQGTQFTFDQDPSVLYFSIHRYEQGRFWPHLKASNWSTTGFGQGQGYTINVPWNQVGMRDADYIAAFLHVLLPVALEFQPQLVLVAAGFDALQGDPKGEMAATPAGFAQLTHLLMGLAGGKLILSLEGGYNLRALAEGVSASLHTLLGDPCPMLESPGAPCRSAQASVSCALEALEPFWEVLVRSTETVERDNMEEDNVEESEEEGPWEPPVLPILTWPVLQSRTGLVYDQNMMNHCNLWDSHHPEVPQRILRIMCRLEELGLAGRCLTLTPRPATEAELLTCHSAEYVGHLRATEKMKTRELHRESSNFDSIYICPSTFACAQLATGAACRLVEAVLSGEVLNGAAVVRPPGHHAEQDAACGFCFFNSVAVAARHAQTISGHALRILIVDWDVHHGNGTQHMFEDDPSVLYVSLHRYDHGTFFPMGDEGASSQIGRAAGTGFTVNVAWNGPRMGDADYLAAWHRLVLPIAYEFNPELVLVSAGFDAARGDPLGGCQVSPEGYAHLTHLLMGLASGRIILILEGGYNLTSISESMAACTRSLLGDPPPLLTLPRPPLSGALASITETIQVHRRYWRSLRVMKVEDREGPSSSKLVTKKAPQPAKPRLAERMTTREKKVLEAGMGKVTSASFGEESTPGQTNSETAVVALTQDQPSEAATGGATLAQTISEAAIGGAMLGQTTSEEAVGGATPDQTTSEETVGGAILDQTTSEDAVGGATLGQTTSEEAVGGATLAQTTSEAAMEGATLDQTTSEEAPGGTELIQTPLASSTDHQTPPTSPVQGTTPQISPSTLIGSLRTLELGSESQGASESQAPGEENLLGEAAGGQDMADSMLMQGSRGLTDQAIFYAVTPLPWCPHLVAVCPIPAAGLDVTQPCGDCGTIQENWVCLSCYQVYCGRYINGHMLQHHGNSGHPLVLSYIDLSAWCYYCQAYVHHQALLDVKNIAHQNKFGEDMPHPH
Put plainly: HDAC6 enzyme activity inhibition assay (in vitro, fluorimetric). The format is biochemical. To be noted: for HDAC6 selectivity (fold): HDAC6 selectivity over HDAC1; for pIC50: human recombinant HDAC6, fluorimetric kit, same protocol as HDAC1. The method in brief:
as §1

T1 sequence (Q13547 whole entry): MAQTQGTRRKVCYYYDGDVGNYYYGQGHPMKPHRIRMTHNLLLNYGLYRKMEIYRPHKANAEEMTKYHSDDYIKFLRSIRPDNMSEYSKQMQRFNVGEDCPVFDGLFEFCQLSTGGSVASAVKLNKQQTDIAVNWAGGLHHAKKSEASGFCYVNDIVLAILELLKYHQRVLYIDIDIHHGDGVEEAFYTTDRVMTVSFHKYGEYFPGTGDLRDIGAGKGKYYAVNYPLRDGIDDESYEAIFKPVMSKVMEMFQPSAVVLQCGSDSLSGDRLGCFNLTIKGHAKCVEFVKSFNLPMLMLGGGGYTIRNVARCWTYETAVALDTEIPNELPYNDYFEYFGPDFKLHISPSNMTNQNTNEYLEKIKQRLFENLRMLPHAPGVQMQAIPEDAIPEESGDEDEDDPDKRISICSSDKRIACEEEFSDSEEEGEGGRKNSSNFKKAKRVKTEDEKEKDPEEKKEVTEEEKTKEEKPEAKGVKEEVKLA

The pIC50 is the negative decadic logarithm of the IC50, by convention in mol/L. As for `Cc1ccc(C(=O)N2[C@H](C)CN(Cc3ccc(C(=O)NO)cc3)C[C@@H]2C)cc1` [Compound 290, 4-(((3R,5S)-3,5-dimethyl-4-(4-methylbenzoyl)piperazin-1-yl)methyl)-N-hydroxybenzamide], the values for the pIC50 at human recombinant HDAC1 and on human recombinant HDAC6 were 5.42 and 7.10, respectively. Moreover, the “HDAC6 selectivity (fold)” value on human recombinant HDAC6 stood at 48 fold.

Consider `CC(=O)N1CCN(Cc2cccc(CN3[C@H](C)CN(Cc4ccc(C(=O)NO)cc4)C[C@@H]3C)c2)CC1` [Compound 431, 4-(((3R,5S)-4-(3-((4-acetylpiperazin-1-yl)methyl)benzyl)-3,5-dimethylpiperazin-1-yl)methyl)-N-hydroxybenzamide], for which the pIC50 is 4.87 on human recombinant HDAC1 and 7.66 at human recombinant HDAC6. The “HDAC6 selectivity (fold)” value on human recombinant HDAC6 stood at 611 fold.

For the compound `C[C@@H]1CN(C(=O)c2cccc(Cl)c2)C[C@H](C)N1Cc1ccc(C(=O)NO)cc1` [Compound 107, 4-(((2S,6R)-4-(3-chlorobenzoyl)-2,6-dimethylpiperazin-1-yl)methyl)-N-hydroxybenzamide], on human recombinant HDAC1, the pIC50 was 5.08. Moreover, on human recombinant HDAC6, the “HDAC6 selectivity (fold)” value is given as 81 fold and the pIC50 was 6.99.

As for `C[C@@H]1CN(Cc2ccc(C(=O)NO)cc2)C[C@H](C)N1Cc1cccc(CN2CC(F)(F)C2)c1` [Compound 384, 4-(((3R,5S)-4-(3-((3,3-difluoroazetidin-1-yl)methyl)benzyl)-3,5-dimethylpiperazin-1-yl)methyl)-N-hydroxybenzamide], the pIC50 on human recombinant HDAC1 is under 5.00. Moreover, on human recombinant HDAC6, the “HDAC6 selectivity (fold)” value is over 94 fold and the negative logarithm of the IC50 (pIC50) is 6.97.

Consider `C[C@@H]1CN(Cc2ccc(C(=O)NO)cc2)C[C@H](C)N1Cc1ccccc1C1=CCN(S(C)(=O)=O)CC1` [Compound 481, 4-(((3R,5S)-3,5-dimethyl-4-(2-(1-(methylsulfonyl)-1,2,3,6-tetrahydropyridin-4-yl)benzyl)piperazin-1-yl)methyl)-N-hydroxybenzamide], for which, on human recombinant HDAC1, the pIC50 is 4.79. In addition, at human recombinant HDAC6, the “HDAC6 selectivity (fold)” value is 153 fold and the pIC50 is 6.97.

Take `C[C@@H]1CN(Cc2ccc(-c3ccco3)cc2)C[C@H](C)N1Cc1ccc(C(=O)NO)cc1` [Compound 303, 4-(((2S,6R)-4-(4-(furan-2-yl)benzyl)-2,6-dimethylpiperazin-1-yl)methyl)-N-hydroxybenzamide]: at human recombinant HDAC1, the pIC50 is 5.54. Further, at human recombinant HDAC6, the “HDAC6 selectivity (fold)” value was found to be 3 fold and the negative logarithm of the IC50 (pIC50) was 5.96.

As to `CC(=O)N1CC=C(c2ccccc2CN2[C@H](C)CN(Cc3ccc(C(=O)NO)cc3)C[C@@H]2C)CC1` [Compound 482, 4-(((3R,5S)-4-(2-(1-acetyl-1,2,3,6-tetrahydropyridin-4-yl)benzyl)-3,5-dimethylpiperazin-1-yl)methyl)-N-hydroxybenzamide], on human recombinant HDAC1, the pIC50 was 4.90. In addition, at human recombinant HDAC6, the “HDAC6 selectivity (fold)” value is listed as 121 fold and the pIC50 was 6.99.

Consider `C[C@@H]1CN(Cc2cc3cc(C(=O)NO)ccc3o2)C[C@H](C)N1Cc1ccccc1` [Compound 574, 2-(((3R,5S)-4-benzyl-3,5-dimethylpiperazin-1-yl)methyl)-N-hydroxybenzofuran-5-carboxamide], for which the figures for the pIC50 on human recombinant HDAC1 and at human recombinant HDAC6 were 5.41 and 6.09, respectively. The “HDAC6 selectivity (fold)” value at human recombinant HDAC6 is on record as 4 fold.

As for `C[C@@H]1CN(Cc2ccc(CC(=O)NO)cc2)C[C@H](C)N1Cc1ccccc1` [Compound 173, 2-(4-(((3R,5S)-4-benzyl-3,5-dimethylpiperazin-1-yl)methyl)phenyl)-N-hydroxyacetamide], at human recombinant HDAC1, the pIC50 was 5.14. In addition, at human recombinant HDAC6, the “HDAC6 selectivity (fold)” value came out at 85 fold and the pIC50 is 7.07.

As to `C[C@@H]1CN(Cc2ccc(C(=O)NO)cc2)C[C@H](C)N1C(=O)Cc1cccc(-c2ccccc2)c1` [Compound 234, 4-(((3R,5S)-4-(2-([1,1′-biphenyl]-3-yl)acetyl)-3,5-dimethylpiperazin-1-yl)methyl)-N-hydroxybenzamide], the figures for the pIC50 on human recombinant HDAC1 and on human recombinant HDAC6 were 5.05 and 6.29, respectively. The “HDAC6 selectivity (fold)” value at human recombinant HDAC6 was 17 fold.
